# According to patent US8129121B2, “Regulation of lipid droplet formation by modulation of FIT1 and FIT2 and uses thereof” (Albert Einstein College of Medicine of Yeshiva University, priority 2007, dated 2012):
# Key:
# FIT2 = test: Lentivirus shRNA knockdown of FIT2 in NIH-3T3 L1 cells, FIT2 mRNA and protein; assay type: cell-based, mouse; settings: adipocytes infected with lentivirus, vs control shRNA or no virus
# Source text: (§1) FIG. 4A-4C. shRNAi mediated knockdown of FIT2. NIH-3T3 or RAW246.7 cells were infected with lentivirus expressing shRNA sequence targeting murine FIT2 (FIT2shRNA), or control shRNA (contshRNA), or no lentivirus (control). (A) FIT2shRNA reduced lipid droplet formation during NIH-3T3 cell differentiation (days of differentiation are shown above image) as visualized by BODIPY493/503 staining. […] Expression of differentiation markers Apt and PPARgamma, were not changed in FIT2shRNA treated cells compared to controls.
# Lentivirus shRNA. The following short hairpin RNA (shRNA) sequences (sense strand shown) were used to knockdown mouse FIT2 expression: shRNAcont, […] (SEQ ID NO:20); shRNAFIT2, (SEQ ID NO:21) […].
# (§2) Double stranded shRNA DNAs were used to generate lentiviruses using the U6 promoter driven BLOCK-iT Lentivirus RNAi expression system (Invitrogen Corporation). Knockdown of human FIT2 in HEK293 cells was performed by stably transfection using pEntryU6 vector (Invitrogen Corp). NIH-3T3 L1 pre-adipocytes and HepG2 cells were infected with an MOI of 10-50.
# (§3) shRNA suppression of FIT2 abolishes lipid droplet formation during adipogenesis. To provide a direct test if FIT proteins are essential for the formation of lipid droplets, knockdown of FIT expression was sought in established cellular models of lipid droplet formation. […]
# NIH-3T3 L1 adipocytes = test: Lentivirus shRNA knockdown of FIT2 in NIH-3T3 L1 cells during adipogenesis: lipid droplets, differentiation markers, TG biosynthesis, lipolysis; assay type: cell-based, mouse
# Source text: as §1
# FIG. 11A-11B. Triglyceride biosynthesis and lipolysis assays in FIT2 knockdown cells. (A) Triglyceride synthesis measurements were performed at each time point during differentiation using ^14C glycerol and TLC analysis of triglyceride levels quantified by PhosphorImager analysis. Each time point contained 3 independent samples for each condition, and represented as mean±std, p<0.001. […] (B) Lipolysis assays performed on cell lysates from NIH 3T3-L1 cells at day 4 and day 6 of differentiation. No differences were observed between control and shRNAcont and FIT2shRNA adipocytes.
# Cell culture. HEK293, and HeLa cells were grown in DMEM 10% FBS. NIH-3T3 L1 adipocytes were a kind gift from Philip Scherer and grow and differentiated by standard methods (24).
# Triglyceride biosynthesis and DGAT assays. Cells in culture were incubated with 7.5 μCi/mL of 14C-glycerol (Specific activity: 125-180 mCi/mmol, NEN-Amersham) for the indicated times, followed by extraction with HIP and separation by TLC as referenced above. Radioactive triglycerides were quantified using PhosphorImager analysis and represented as a rate of triglyceride production using arbitrary units obtained from PhosphorImager analysis.
# Lipase activity assay. Total cellular lipase activity was measured using the established method of Holm and Osterlund in Methods in Molecular Biology 1999; 109, p 109-121.
# as §2, §3
substance,measurement,setting,value
"FIT2 shRNA: lentivirus-expressed short hairpin RNA targeting murine FIT2, SEQ ID NO:21 (CACCGCACCATGTTTGGTTTGTTGGCGAACCAACAAACCAAACATGGTGC)",FIT2 mRNA,FIT2; Northern blot,significantly suppressed
same,FIT2 protein,FIT2; Western blot,significantly suppressed
same,Triglyceride biosynthesis,"NIH-3T3 L1 adipocytes; 14C glycerol, TLC, knockdown adipocytes compared to controls",similar
same,lipid droplets,"NIH-3T3 L1 adipocytes; BODIPY493/503 staining, pre-adipocytes (day 0) and mature adipocytes (day 4 to 9)",almost complete absence of lipid droplets
same,expression of PPARgamma and AP2 (markers of adipocyte differentiation),"NIH-3T3 L1 adipocytes; FIT2 suppressed cells, Northern blot",not changed
same,triglyceride lipase activities,"NIH-3T3 L1 adipocytes; cell lysates at day 4 and day 6 of differentiation, compared to controls",similar
